Laboratory results as given in US11498943B2, “Amyloid inhibitory peptides” (TECHNISCHE UNIVERSITÄT MÜNCHEN, priority 2018, dated 2022).
Like-named read-outs stand apart in the source and are kept apart here. One block for each compound: values may come before it. Where a SMILES comes first, the peptide text is derived from it. Bridges are numbered along the chain shown (N, C = ends). [ ]: non-standard residue; d: D form. The star is where a group is joined. 5FAM = O=C1OC2(c3ccc(O)cc3Oc3cc(O)ccc32)c2ccc(C(=O)*)cc21; NMeI = CC[C@H](C)[C@H](NC)C(=O)O; Sar = CNCC(=O)O

How the values were obtained:
IAPP [1] = biological target: T1, IAPP (Homo sapiens, UniProt P10997); experiment: Fluorescence spectroscopic titration of Fluos-IAPP; format: binding; design: IAPP was synthesized by SPPS and the Fmoc-strategy on RINK resin, subjected to air oxidation and purified by RP-HPLC; made in house; host or cells: chemical synthesis (Fmoc SPPS on RINK resin, air oxidation); details: Fluos-IAPP 5 nM, pH 7.4
T1 sequence (P10997 34-70 limits assumed): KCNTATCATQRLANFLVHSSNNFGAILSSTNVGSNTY
Description: (§1) Fluorescence Spectroscopic Titration Studies
(§2) A JASCO FP-6500 fluorescence spectrophotometer was used for the fluorescence spectroscopic titrations, which were performed by using previously described experimental protocols. […] App. […] Briefly, freshly made stock solutions of peptides and fluorescently labeled analogs in HFIP were used. Measurements were performed in 10 mM sodium phosphate buffer, pH 7.4 ([…]) at room temperature within 2-5 min following solution preparation. […] App. Kds were estimated using 1/1 binding models as previously described. […] KdDs are means (+SD) from three binding curves.

Aβ40 [2] = biological target: T2, Aβ40 (Homo sapiens, UniProt P05067); experiment: Fluorescence spectroscopic titration of Dac-Aβ40; format: binding; details: Dac-Aβ40 10 nM, pH 7.4
T2 construct: Aβ40 (TFA salt) was synthesized by Fmoc-based solid phase synthesis (SPPS); made in house; host or cells: chemical synthesis (Fmoc SPPS on Tentagel R PHB resin)
T2 sequence (P05067 672-711): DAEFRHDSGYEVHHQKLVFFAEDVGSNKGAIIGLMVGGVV
Description: as §1, §2

IAPP [3] = biological target: T1, IAPP; experiment: MTT reduction assay: IC50 of inhibitory effect on cell-damaging amyloid self-assembly of IAPP (RIN5fm cells)
Description: (§3) Assessment of Cell Damage by MTT Reduction Assay
(§4) Both cell lines were cultured and plated in 96-well plates as described. […] Following incubation with the cells for ˜20 h (37° C., humidified atmosphere with 5% CO2), the MTT reduction assay was used to assess cell damage/metabolic activity as previously described.

[4] = Peptide stability in human plasma (in vitro); format: in vitro ADME; details: human blood plasma, 200 μM peptide, 37° C.
Description: Peptide Stability in Human Plasma (In Vitro)
Peptides were dissolved in human blood plasma (obtained from voluntary healthy donors) at a concentration of 200 μM and incubated at 37° C. for various time intervals. Following quenching (1/1) with aqueous trichloroacetic acid (10%), solutions were incubated on ice for 10 min, subjected to centrifugation to precipitate plasma proteins (20200 g; 4 min), and the supernatants were mixed (1/2) with a solution consisting of 80% HPLC buffer B and 20% HPLC buffer A (see below). To quantify intact peptide at different time points, solutions containing the supernatants were analyzed by RP-HPLC (detection at 214 nm) by using a Nucleosil 100 C18 column (Grace) (length 33 mm length, ID 8 mm, 7 μm particle size) with a flow rate of 2.0 ml/min and eluting buffers A, 0.058% (v/v) TFA in water, and B, 0.05% (v/v) TFA in 90% (v/v) CH3CN in water. The elution gradient was 10-90% B in A over 8 min; this step was followed by a 90-10% B in A over 3 min step to establish starting conditions. HPLC fractions were collected, lyophilized, and analyzed by MALDI-TOF-MS using a Bruker Daltonik MALDI-TOF MS instrument.

Aβ40 [5] = biological target: T2, Aβ40; experiment: MTT reduction assay: IC50 of inhibitory effect on cell-damaging amyloid self-assembly of Aβ40 (PC12 cells); format: cell-based
Description: as §3, §4

[6] = biological target: recombinant human neprilysin (NEP) (Homo sapiens, UniProt P08473); details: peptide 100 μM, NEP 500 ng/ml, pH 6.5, 37° C.
Chain of recombinant human neprilysin (NEP) (P08473 whole entry): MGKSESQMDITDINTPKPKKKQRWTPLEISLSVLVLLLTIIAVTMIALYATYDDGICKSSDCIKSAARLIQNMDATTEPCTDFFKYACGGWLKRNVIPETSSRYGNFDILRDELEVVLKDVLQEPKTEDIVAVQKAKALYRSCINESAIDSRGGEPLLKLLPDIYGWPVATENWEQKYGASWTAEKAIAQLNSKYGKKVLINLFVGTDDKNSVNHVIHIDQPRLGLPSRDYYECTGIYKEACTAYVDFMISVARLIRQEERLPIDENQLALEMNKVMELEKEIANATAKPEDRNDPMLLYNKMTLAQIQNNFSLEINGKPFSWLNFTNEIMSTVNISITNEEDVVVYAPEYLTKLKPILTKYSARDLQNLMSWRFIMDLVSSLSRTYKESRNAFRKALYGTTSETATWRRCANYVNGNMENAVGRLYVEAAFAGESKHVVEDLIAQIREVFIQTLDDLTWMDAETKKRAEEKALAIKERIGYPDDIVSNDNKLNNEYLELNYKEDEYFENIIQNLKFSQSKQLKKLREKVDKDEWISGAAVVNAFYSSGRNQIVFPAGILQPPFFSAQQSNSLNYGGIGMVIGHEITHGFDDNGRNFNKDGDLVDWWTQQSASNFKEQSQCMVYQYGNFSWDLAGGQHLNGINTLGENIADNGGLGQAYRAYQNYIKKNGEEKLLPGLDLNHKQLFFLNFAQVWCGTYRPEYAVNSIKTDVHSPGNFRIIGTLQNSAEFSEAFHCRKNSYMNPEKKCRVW
Description: Peptide Stability Toward Degradation by Human Neprilysin (In Vitro)
At indicated time points aliquots were quenched (1/1) with aqueous trichloroacetic acid (10%) and solutions were subjected to HPLC analysis and HPLC fractions were collected and analyzed by MALDI-TOF-MS as described under “Peptide stability in human plasma” (above).

hCMEC/D3 cells = experiment: Human BBB Transwell permeability assay (in vitro); details: hCMEC monolayer on Transwell; peptides 10 μM, Lucifer yellow 20 μM; mean (±SEM)
Description: Human BBB Transwell Permeability Assay (In Vitro)
Human cerebral microvascular endothelial (hCMEC/D3) cells (Merck) were cultured in collagen type I-coated dishes in EndoGro-MV complete culture media kit supplemented with 1 ng/mL fibroblast growth factor-2 (FGF-2) (all reagents from Merck) (at 37° C. and 5% CO2). […] The Transwell permeability assay was then performed based on a previously established assay using 24-well plates (Sigma-Aldrich) containing 6.5 mm Transwell inserts (0.4 μm pore polycarbonate membrane (Corning)) as follows:
hCMEC/D3 cells were grown in endothelial cell medium (ECM), containing EndoGro-MV complete media, 10% fetal bovine serum (FBS), 1% penicillin-streptamycine (P/S), and 1 ng/mL FGF-2 on the membranes of the Transwell inserts (2×10^5 cells/insert) (37° C. and 5% CO2) until full confluency was reached (normally after 5-7 days of culture). Confluency and BBB-type tightness was verified by TEER analysis; TEER values of 60-80 Ωcm^2 were obtained. The upper and lower chambers then were reconstituted with 200 μl and 800 μl, respectively, of ECM containing 2% FBS. The N-terminal fluorescein-labeled 12 amino acid-long peptide [sequence]-amide (Fluos-Trfb) known to readily cross the BBB via binding to the transferrin receptor, was used as a positive control for BBB permeability in this model.
As a reference point for the maximum fluorescence intensity, 100 μl of medium from the upper chamber at 0 h was also transferred and quantified. […] Lucifer yellow in the lower chamber was quantified by measuring the fluorescence at 530 nm (excitation at 485 nm). Relative permeability (FIG. 3f) was calculated by dividing the fluorescence value of the aliquot from the lower chamber at each time point by the fluorescence value of the 0 h-lower chamber aliquot.
Reported Papp values are means (±SEM) from at least 3 transport assays (each of them performed in triplicates).

[7] = RP-HPLC and MALDI-TOF-MS, read-out: Half-life time in human plasma
[8] = Aβ40 500 nM, 72 h-aged solutions, PC12 cells, MTT reduction, means (±SD) from 3-4 titration assays, read-out: IC50 (±SD) (nM) Aβ40 inhibition

Papp A→B: 14.6 ×10⁻⁶ cm/s
Compound: CC[C@H](C)[C@H]1C(=O)NCC(=O)NCC(=O)N[C@@H](C(N)=O)CSSC[C@@H](NC(=O)c2ccc3c(c2)C(=O)OC32c3ccc(O)cc3Oc3cc(O)ccc32)C(=O)NCC(=O)N[C@H](Cc2ccccc2)C(=O)N[C@H](CC(C)C)C(=O)NCC(=O)NCC(=O)N[C@H](CCCNC(=N)N)C(=O)N[C@H](CCCNC(=N)N)C(=O)N[C@H](CCCNC(=N)N)C(=O)NCC(=O)N[C@H](Cc2ccccc2)C(=O)N(C)CC(=O)NCC(=O)N1C [Fluos-2e] (5FAM-[dC]G[dF][dL]GG[dR][dR][dR]G[dF][Sar]G[NMeI]GG[dC]-NH2; disulfide 1-17; N-terminus assumed)

Papp A→B: 20.8 ×10⁻⁶ cm/s
Compound: CSCC[C@H](NC(=O)[C@@H]1CCCN1C(=O)[C@@H]1CCCN1C(=O)[C@H](CCCNC(=N)N)NC(=O)[C@H](Cc1c[nH]cn1)NC(=O)[C@@H](NC(=O)c1ccc2c(c1)C(=O)OC21c2ccc(O)cc2Oc2cc(O)ccc21)[C@@H](C)O)C(=O)N[C@@H](Cc1c[nH]c2ccccc12)C(=O)N[C@@H](CO)C(=O)N1CCC[C@H]1C(=O)N[C@H](C(=O)N[C@@H](Cc1c[nH]c2ccccc12)C(=O)N1CCC[C@H]1C(N)=O)C(C)C [Fluos-Trfb, reference compound] (5FAM-THRPPMWSPVWP-NH2; N-terminus assumed)

Compound: CC[C@H](C)[C@H]1C(=O)N[C@@H](CC(C)C)C(=O)N[C@@H](CO)C(=O)N[C@H](C(N)=O)CSSC[C@H](N)C(=O)N[C@@H](C)C(=O)N[C@@H]([C@@H](C)O)C(=O)N[C@@H](CCC(N)=O)C(=O)N[C@@H](CCCNC(=N)N)C(=O)N[C@@H](CC(C)C)C(=O)N[C@@H](C)C(=O)N[C@@H](CC(N)=O)C(=O)N[C@@H](Cc2ccccc2)C(=O)N[C@@H](CC(C)C)C(=O)N[C@@H](C(C)C)C(=O)N[C@@H](Cc2c[nH]cn2)C(=O)N[C@@H](CCCNC(=N)N)C(=O)N[C@@H](CCCNC(=N)N)C(=O)N[C@@H](CCCNC(=N)N)C(=O)N[C@@H](CC(N)=O)C(=O)N[C@@H](Cc2ccccc2)C(=O)N(C)CC(=O)N[C@@H](C)C(=O)N1C [Peptide 1a] (H-CATQRLANFLVHRRRNF[Sar]A[NMeI]LSC-NH2; disulfide 1-23; N-terminus assumed)
app. Kd of interaction with N-terminal fluorescently labeled IAPP (IAPP [1]): mid-nanomolar
app. Kd of interaction with N-terminal fluorescently labeled Aβ40 (Aβ40 [2]): mid-nanomolar

Compound: CC[C@H](C)[C@H]1C(=O)N[C@@H](CC(C)C)C(=O)N[C@@H](CO)C(=O)N[C@H](C(N)=O)CSSC[C@H](N)C(=O)N[C@@H](CC(N)=O)C(=O)N[C@@H](Cc2ccccc2)C(=O)N[C@@H](CC(C)C)C(=O)N[C@@H](C(C)C)C(=O)N[C@@H](Cc2c[nH]cn2)C(=O)N[C@@H](CCCNC(=N)N)C(=O)N[C@@H](CCCNC(=N)N)C(=O)N[C@@H](CCCNC(=N)N)C(=O)N[C@@H](CC(N)=O)C(=O)N[C@@H](Cc2ccccc2)C(=O)N(C)CC(=O)N[C@@H](C)C(=O)N1C [Peptide 2a] (H-CNFLVHRRRNF[Sar]A[NMeI]LSC-NH2; disulfide 1-17; N-terminus assumed)
Potency against IAPP cytotoxic self-assembly relative to 1a (IAPP [3]; ratio of IC50s): ~3 fold
app. Kd of interaction with N-terminal fluorescently labeled IAPP (IAPP [1]): mid-nanomolar
app. Kd of interaction with N-terminal fluorescently labeled Aβ40 (Aβ40 [2]): mid-nanomolar

Compound: CC[C@H](C)[C@H]1C(=O)NCC(=O)NCC(=O)N[C@H](C(N)=O)CSSC[C@H](N)C(=O)NCC(=O)N[C@@H](Cc2ccccc2)C(=O)N[C@@H](CC(C)C)C(=O)NCC(=O)NCC(=O)N[C@@H](CCCNC(=N)N)C(=O)N[C@@H](CCCNC(=N)N)C(=O)N[C@@H](CCCNC(=N)N)C(=O)NCC(=O)N[C@@H](Cc2ccccc2)C(=O)N(C)CC(=O)NCC(=O)N1C [Peptide 2b] (H-CGFLGGRRRGF[Sar]G[NMeI]GGC-NH2; disulfide 1-17)
half-life at 200 μM ([4]; read-out: t1/2 in human plasma): ~0.75 h
IC50 (Aβ40 [5]): 654 nM
IC50 (IAPP [3]): 426 nM
app. Kd of interaction with N-terminal fluorescently labeled IAPP (IAPP [1]): mid-nanomolar
app. Kd of interaction with N-terminal fluorescently labeled Aβ40 (Aβ40 [2]): mid-nanomolar

half-life at 200 μM [4, 7]: 1 to 2 h
IC50 (Aβ40 [5]; [8]): 204 nM
Compound: CC[C@H](C)[C@H]1C(=O)NCC(=O)NCC(=O)N[C@H](C(N)=O)CSSC[C@H](N)C(=O)NCC(=O)N[C@@H](Cc2ccccc2)C(=O)N[C@@H](CC(C)C)C(=O)NCC(=O)NCC(=O)N[C@H](CCCNC(=N)N)C(=O)N[C@H](CCCNC(=N)N)C(=O)N[C@H](CCCNC(=N)N)C(=O)NCC(=O)N[C@@H](Cc2ccccc2)C(=O)N(C)CC(=O)NCC(=O)N1C [Peptide 2c] (H-CGFLGG[dR][dR][dR]GF[Sar]G[NMeI]GGC-NH2; disulfide 1-17)

half-life at 200 μM [4, 7]: 1 to 2 h
IC50 (Aβ40 [5]; [8]): 703 nM
Compound: CC[C@H](C)[C@H]1C(=O)NCC(=O)NCC(=O)N[C@H](C(N)=O)CSSC[C@H](N)C(=O)NCC(=O)N[C@H](Cc2ccccc2)C(=O)N[C@H](CC(C)C)C(=O)NCC(=O)NCC(=O)N[C@H](CCCNC(=N)N)C(=O)N[C@H](CCCNC(=N)N)C(=O)N[C@H](CCCNC(=N)N)C(=O)NCC(=O)N[C@H](Cc2ccccc2)C(=O)N(C)CC(=O)NCC(=O)N1C [Peptide 2d] (H-CG[dF][dL]GG[dR][dR][dR]G[dF][Sar]G[NMeI]GGC-NH2; disulfide 1-17)

Compound: CC[C@H](C)[C@H]1C(=O)NCC(=O)NCC(=O)N[C@@H](C(N)=O)CSSC[C@@H](N)C(=O)NCC(=O)N[C@H](Cc2ccccc2)C(=O)N[C@H](CC(C)C)C(=O)NCC(=O)NCC(=O)N[C@H](CCCNC(=N)N)C(=O)N[C@H](CCCNC(=N)N)C(=O)N[C@H](CCCNC(=N)N)C(=O)NCC(=O)N[C@H](Cc2ccccc2)C(=O)N(C)CC(=O)NCC(=O)N1C [Peptide 2e] (H-[dC]G[dF][dL]GG[dR][dR][dR]G[dF][Sar]G[NMeI]GG[dC]-NH2; disulfide 1-17)
half-life at 200 μM [4, 7]: > 11 h
IC50 (Aβ40 [5]): 542 nM
Resistance to degradation by human neprilysin [6]: fully resistant to degradation

Compound: Lucifer yellow
Apparent permeability (Papp) at 2 h (hCMEC/D3 cells): 5.3×10^−6 (±2.7) cm/s
